The text below walks through data of ChEMBL document CHEMBL3046534, “QSAR modeling of the inhibition of reverse transcriptase enzyme with benzimidazolone analogs” (Med Chem Res, 2011).

The subject of this assay is Human immunodeficiency virus 1. Put plainly: Antiviral activity against Human immunodeficiency virus 1 infected human MT4 cells assessed as protection against virus-induced cytopathic effect. In kind it is functional, organism-based. The note with it: Human immunodeficiency virus 1, MT4.

For `CC(C)c1ccc(Cn2c(O)nc3ccc(Cl)cc32)cc1`, the EC50 (read-out: EC50) is 2830 nM and the EC50 (read-out: pEC50 (converted)) is 2830 nM.
On to `O=c1oc2ccc(Cl)cc2n1Cc1c(F)cccc1F`, for which the EC50 was 3720 nM (read-out: EC50) and 3720 nM (read-out: pEC50 (converted)).
With `Oc1nc2cc(Cl)ccc2n1Cc1c(F)cccc1F`, the EC50 by setting is: (read-out: EC50) 29600 nM; (read-out: pEC50 (converted)) 29600 nM.
`O=c1[nH]c2ccc(Cl)cc2n1Cc1c(F)cccc1F`: the EC50 (read-out: pEC50 (converted)) was 534 nM.
Regarding `Oc1nc2ccc(Cl)cc2n1Cc1cccc2ccccc12`, the EC50 reads like this: (read-out: EC50) 870 nM; (read-out: pEC50 (converted)) 870 nM.
